Results as given in paper PMC12633754, “Elastase inhibition by natural flavonoids: mechanistic insights and potential therapeutic applications” (Frontiers in Nutrition, 2025).

Columns and labels:
[1] = target: T1, porcine pancreatic elastase (PPE) (Sus scrofa, UniProt P00772); experiment: FT-IR spectra of PPE-monomer complexes; details: PPE 10 μM, flavonoid 100 μM
T1 construct: purchased Sigma-Aldrich (St. Louis, MO, United States)
Protocol: FTIR spectra were obtained using the potassium bromide (KBr) compression method with a Nicolet IS-50 spectrometer (Thermo Fisher Scientific, Waltham, MA, United States). […] The sheets were then dried at 45 °C and pressed. Blank background for the PBS buffer sheets. The spectral region between 4,000 and 500 cm^−1 was selected to examine changes in the secondary structure resulting from enzyme-drug interactions. All samples were assayed after drying and the experimental conditions were consistent for each group of assays.

[2] = target: T1, porcine pancreatic elastase (PPE); experiment: CD spectroscopy, secondary structure of PPE; details: PPE 5 μM, flavonoid 2.5 μM, 298 K; for α-helix (%): PPE alone 7.50; for Random coil (%): PPE alone 41.00; for β-sheet (%): PPE alone 51.50
Protocol: The CD spectra of PPE, PPE-quercetin, PPE-hyperoside, PPE-luteolin, and PPE-luteoloside were obtained using an MOS-500 CD spectrometer (Biologic Science Instruments, Seyssinet-Pariset, France). […] Set at a temperature of 298 K. The signal was recorded from 190 to 260 nm using a path length of 1 mm, acquisition duration of 0.5 s, and scanning step of 2 nm. The CD spectra were averaged after performing three scans and correcting for the background value of the phosphate buffer. All results were documented as CD ellipticity in degrees.

[3] = target: T1, porcine pancreatic elastase (PPE); experiment: Intrinsic fluorescence quenching of PPE: Stern-Volmer, binding constants, thermodynamics; details: for Kd: Ka binding constant; for ΔH / ΔS: van't Hoff, 298, 303, 310 K
Protocol: Fluorescence measurements were performed using a model F-7000 fluorescence spectrometer (Hitachi, Tokyo, Japan). Elastase solution (2,000 μL in Tris–HCl buffer solution) was mixed with inhibitor solutions at different concentrations in a 1.0 cm quartz cell at 298, 303, and 310 K. The final concentrations of the four natural flavonoids and elastase were identical to those used to obtain the synchronous fluorescence spectra. The fluorescence emission spectra were recorded within the range of 285–500 nm, following excitation at 280 nm. The excitation and emission slit widths were set as 2.5 nm. The scan speed was 1,200 nm/min and the photomultiplier tube (PMT) voltage was 630 V. Fluorescence intensities were corrected for inner filter and dilution effects before analyzing the binding and quenching data.
To determine the type of fluorescence quenching of the monomer interacting with PPE, the Stern-Volmer equation was used ([20]–[22]):
F0/F=KSV[Q]+1=Kqτ0[Q]+1 (2)
where F0 and F are the fluorescence intensities of PPE before and after the addition of different monomer solutions, respectively, Ksv is the quenching constant, [Q] is the concentration of different drugs, Kq is the quenching rate constant, τ0 is the average fluorescence lifetime of the substance in the absence of a quencher, and τ0 for the general biological macromolecule is 1 × 10^−8 s ([20], [23], [24]).
According to the correction formula, the binding constant (Ka) and number of binding points (n) for the actions of the four monomers and PPE were calculated as follows ([25]–[27]):
lgF0−F/F=nlgKa−nlg1/[Q0]−[P0]F0−F/F0 (3)
where [ Q0 ] and [P0] are the drug and PPE concentrations, respectively.
where K is the binding constant of the interaction, R is the gas constant, ΔH, ΔG, and ΔS are enthalpy, Gibbs energy, and entropy change.

[4] = target: T1, porcine pancreatic elastase (PPE); experiment: Synchronous fluorescence spectra of PPE; details: Δλ = 60 nm, PPE 2 μM, flavonoid 0-80 μM, 298 K
Protocol: For the synchronous fluorescence spectroscopy experiments, the configuration of the solution preparation was the same as that used in experiment 2.3. Synchronous fluorescence spectra of PPE-quercetin, PPE-hyperoside, PPE-luteolin, and PPE-luteoloside were recorded at 298 K.

[5] = target: T1, porcine pancreatic elastase (PPE); experiment: Fluorescence resonance energy transfer and binding distance; details: [PPE] = [flavonoid] = 10 μM, 298 K
Protocol: The PPE-quercetin, PPE-hyperoside, PPE-luteolin, and PPE-luteoloside binding distances were calculated according to the fluorescence resonance energy transfer theory ([31]–[33]):
J=∑FD(λ)εA(λ)λ^4Δλ/∑FD(λ)Δλ (9)
where k^2 is the dipole moment spatial orientation factor, usually taking the average 2/3; φ is the quantum efficiency of PPE, usually a quantum efficiency of Try residues of 0.15; n is the refractive index of the medium, representing the average of water and organic matter; J is the overlap integral of the absorption spectra and the fluorescence spectra; and ɛA(λ) is the molar extinction coefficient ([34]–[36]).

[6] = target: T1, porcine pancreatic elastase (PPE); experiment: Elastase inhibition assay, fluorescent substrate MeOSuc-Ala-Ala-Pro-Val-AMC; format: biochemical; details: for IC50: 298 K; for inhibition at 22.5 µM: read-out: Inhibition rate of PPE
Protocol: Elastase was selected as the enzyme target and MeOSuc-Ala-Ala-Pro-Val-AMC as the substrate for the enzymatic reaction. According to the principle of enzyme reactions, an in vitro target enzyme drug screening model was established by measuring the relative fluorescence intensity for drug screening and evaluation. The inhibition rate was measured using a FlexStation3 multifunctional plate reader (Molecular Devices, Shanghai, China). Elastase solution (50 μL, 5 × 10^−7 mol/L) was mixed with a fluorescent substrate (50 μL, 2 × 10^−5 mol/L), and Tris–HCl buffer solution was added to obtain a total volume of 200 μL. […] The excitation wavelength was adjusted to 380 nm, and the emission wavelength was recorded in the range 420–540 nm. A 200 μL buffer solution was used as the blank for reference. The relative fluorescence values of pure enzyme activity were recorded. Four monomer solutions of the same concentration were added separately and their relative fluorescence values were measured under the same conditions. The concentration of each monomer was varied in different samples to obtain IC50 values. Inhibition rate (%) was calculated as follows:
Inhibition rate(%)=RFUPPE−RFUDrugs+PPE/RFUPPE×100% (1)
where the relative fluorescence unit (RFU) PPE refers to the relative fluorescence measured when only PPE and the fluorescent substrate are present without any inhibitors, and RFU Drugs+PPE refers to the relative fluorescence measured when both PPE and the test drug inhibitor are present.

[7] = target: T1, porcine pancreatic elastase (PPE); experiment: UV-vis absorption spectra of PPE with flavonoid; details: PPE 5 μM, flavonoid 15 μM, 298 K
Protocol: The UV–vis absorption spectra of porcine pancreatic elastase PPE (2.5 mL) were recorded using a Cary 300 spectrometer (Agilent, San Diego, CA, United States) in a quartz cuvette with a path length of 10 mm. PPE concentration was fixed at 5 μM and the drug concentrations were 0 and 15 μM. Tris–HCl solution (pH 7.6) was used as the blank. The control group was a solution of four flavonoid monomers at a final concentration of 15 μM. The spectra were recorded in the range of 200–500 nm with a slit width of 2 nm at 298 K.

T1 sequence (P00772 27-266): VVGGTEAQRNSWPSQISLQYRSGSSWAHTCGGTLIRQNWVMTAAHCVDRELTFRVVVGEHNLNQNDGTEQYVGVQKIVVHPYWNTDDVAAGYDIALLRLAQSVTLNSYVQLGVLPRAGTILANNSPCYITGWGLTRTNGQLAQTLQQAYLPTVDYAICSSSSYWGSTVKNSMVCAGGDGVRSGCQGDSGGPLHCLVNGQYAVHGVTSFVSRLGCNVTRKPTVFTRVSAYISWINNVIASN

O=c1c(O[C@@H]2O[C@H](CO)[C@H](O)[C@H](O)[C@H]2O)c(-c2ccc(O)c(O)c2)oc2cc(O)cc(O)c12 [hyperoside]
amide I band of PPE after addition (from 1638.45) [1]: 1633.14 cm⁻¹
decrease of α-helical structure [2]: 1.20%
α-helix (%) [2]: 6.30%
Random coil (%) [2]: 46.34%
β-sheet (%) [2]: 47.36%
KSV Stern-Volmer quenching constant ([3]; 298 K): 5.47 10^4 L•mol^−1
Kq quenching rate constant ([3]; 298 K): 5.47 10^12 L•mol^−1•s^−1
n number of binding sites ([3]; 298 K): 1.58
KSV Stern-Volmer quenching constant ([3]; 303 K): 4.85 10^4 L•mol^−1
Kq quenching rate constant ([3]; 303 K): 4.85 10^12 L•mol^−1•s^−1
n number of binding sites ([3]; 303 K): 1.56
ΔG ([3]; 303 K): -28.76 kJ/mol
KSV Stern-Volmer quenching constant ([3]; 310 K): 4.78 10^4 L•mol^−1
Kq quenching rate constant ([3]; 310 K): 4.78 10^12 L•mol^−1•s^−1
n number of binding sites ([3]; 310 K): 1.35
ΔG ([3]; 310 K): -28.79 kJ/mol
Kd ([3]; 298 K): 24.6 µM
Kd ([3]; 303 K): 29.6 µM
Kd ([3]; 310 K): 31.3 µM
ΔH [3]: -27.511 kJ/mol
ΔS [3]: −4.108 J/(mol•K)
red shift of Trp synchronous fluorescence [4]: 7 nm
R0 [5]: 1.86 nm
binding distance r [5]: 2.40 nm
IC50 [6]: 31 µM
inhibition at 22.5 µM [6]: 41.1%
blue shift of maximum absorption peak of PPE (275 nm) [7]: 4 nm

O=c1cc(-c2ccc(O)c(O)c2)oc2cc(O)cc(O)c12 [luteolin]
amide I band of PPE after addition (from 1638.45) [1]: 1632.53 cm⁻¹
decrease of α-helical structure [2]: 0.96%
α-helix (%) [2]: 6.54%
KSV Stern-Volmer quenching constant ([3]; 298 K): 1.15 10^4 L•mol^−1
Kq quenching rate constant ([3]; 298 K): 1.15 10^12 L•mol^−1•s^−1
n number of binding sites ([3]; 298 K): 0.97
KSV Stern-Volmer quenching constant ([3]; 303 K): 1.04 10^4 L•mol^−1
Kq quenching rate constant ([3]; 303 K): 1.04 10^12 L•mol^−1•s^−1
n number of binding sites ([3]; 303 K): 1.11
ΔG ([3]; 303 K): -27.24 kJ/mol
KSV Stern-Volmer quenching constant ([3]; 310 K): 0.98 10^4 L•mol^−1
Kq quenching rate constant ([3]; 310 K): 0.98 10^12 L•mol^−1•s^−1
n number of binding sites ([3]; 310 K): 1.17
ΔG ([3]; 310 K): -27.28 kJ/mol
Kd ([3]; 298 K): 82.6 µM
Kd ([3]; 303 K): 95.2 µM
Kd ([3]; 310 K): 102 µM
ΔH [3]: -25.241 kJ/mol
ΔS [3]: −6.585 J/(mol•K)
red shift of Trp synchronous fluorescence [4]: 4 nm
R0 [5]: 1.97 nm
binding distance r [5]: 2.67 nm
IC50 [6]: 18.2 µM
inhibition at 22.5 µM [6]: 54.3%
blue shift of maximum absorption peak of PPE (275 nm) [7]: 3 nm

O=c1c(O)c(-c2ccc(O)c(O)c2)oc2cc(O)cc(O)c12 [quercetin]
amide I band of PPE after addition (from 1638.45) [1]: 1633.59 cm⁻¹
decrease of α-helical structure [2]: 1.14%
α-helix (%) [2]: 6.36%
Random coil (%) [2]: 44.59%
β-sheet (%) [2]: 49.05%
KSV Stern-Volmer quenching constant ([3]; 298 K): 0.59 10^4 L•mol^−1
Kq quenching rate constant ([3]; 298 K): 0.59 10^12 L•mol^−1•s^−1
n number of binding sites ([3]; 298 K): 1.13
ΔG ([3]; 298 K): -21.56 kJ/mol
KSV Stern-Volmer quenching constant ([3]; 303 K): 0.58 10^4 L•mol^−1
Kq quenching rate constant ([3]; 303 K): 0.58 10^12 L•mol^−1•s^−1
n number of binding sites ([3]; 303 K): 0.99
ΔG ([3]; 303 K): -21.79 kJ/mol
KSV Stern-Volmer quenching constant ([3]; 310 K): 0.52 10^4 L•mol^−1
Kq quenching rate constant ([3]; 310 K): 0.52 10^12 L•mol^−1•s^−1
n number of binding sites ([3]; 310 K): 0.80
ΔG ([3]; 310 K): -22.11 kJ/mol
ΔH [3]: -7.954 kJ/mol
ΔS [3]: 45.6521 J/(mol•K)
R0 [5]: 1.91 nm
binding distance r [5]: 2.82 nm
inhibition at 22.5 µM [6]: 22.2%
